Test results as given in ChEMBL document CHEMBL2177101, “Role of the CAI-1 fatty acid tail in the Vibrio cholerae quorum sensing response” (J Med Chem, 2012).

Tests used:
[1] = Agonist activity at CqsS in Vibrio cholerae MM920 harboring deltacqsA, deltaluxQ and pBB1 after 4 hrs by bioluminescence assay; type: functional
[2] = test system: Vibrio cholerae; experiment: Agonist activity at CqsS in Vibrio cholerae MM920 harboring deltacqsA, deltaluxQ and pBB1 at 50000 nM after 4 hrs by bioluminescence assay relative to CAI-1; type: functional

SMILES	EC50 [1] [nM]	Emax [2] [%]
CCC(O)C(=O)OCCOCCOCCOC (racemic)	10000	
CCCCCC#CCOC(=O)C(O)CC (racemic)	550	
CCCCC#CCCOC(=O)C(O)CC (racemic)	2000	
CCCCc1ccc(COC(=O)[C@@H](O)CC)cc1	117	
CCC/C=C/CCCOC(=O)C(O)CC (racemic)	270	
CC/C=C/CCCCOC(=O)C(O)CC (racemic)	830	
CCCCCCCCNC(=O)[C@@H](O)CC	1500	
CCOCCOCCOC(=O)C(O)CC (racemic)	> 50000	31
CCCCC/C=C/COC(=O)C(O)CC (racemic)	54	
CCCCCCCCOC(=O)[C@@H](N)CC	30	
CCCCC/C=C\COC(=O)C(O)CC (racemic)	710	
CCCCCCCCCC(=O)[C@@H](N)CC	28	
CCC/C=C\CCCOC(=O)C(O)CC (racemic)	1800	
CCc1cccc(CCCOC(=O)C(O)CC)c1 (racemic)	9400	
CCCCC/C=C/COC(=O)[C@@H](O)CC	39	
CCCCCCCCCCOC(=O)C(O)CC (racemic)	720	
CCCCCc1cccc(COC(=O)C(O)CC)c1 (racemic)	1600	

SMILES	EC50 [1] [nM]	Emax [2] [%]
CCCCCCCCCOC(=O)C(O)CC (racemic)	73	
CCCCc1cccc(COC(=O)C(O)CC)c1 (racemic)	3700	
CCCCCc1ccc(COC(=O)C(O)CC)cc1 (racemic)	680	
CCCCC[C@@H]1C[C@H]1COC(=O)C(O)CC (mixture of isomers)	1200	
CCCCCCCCOC(=O)[C@H](N)CC	33	
CCCCCCCOC(=O)C(O)CC (racemic)	350	
CCCC/C=C\CCOC(=O)C(O)CC (racemic)	780	
CCCCCCOC(=O)C(O)CC (racemic)	1000	
CCCCc1ccccc1COC(=O)C(O)CC (racemic)	> 50000	11
CCCCc1ccc(COC(=O)C(O)CC)cc1 (racemic)	190	
CCc1ccccc1CCCOC(=O)C(O)CC (racemic)	> 50000	28
CCc1ccc(CCCOC(=O)C(O)CC)cc1 (racemic)	190	
CCCC/C=C/CCOC(=O)C(O)CC (racemic)	770	
CCCCOC(=O)C(O)CC (racemic)	> 50000	23
CCCCCOCCOC(=O)C(O)CC (racemic)	4400	
CC/C=C\CCCCOC(=O)C(O)CC (racemic)	570	
CCCCCCOCCOC(=O)C(O)CC (racemic)	2400	
